Reference: BindingDB's records for doi:10.1016/j.ejmech.2013.04.003 (Seoul National University, 2013)

What was measured:
[1] = biological target: T1, Transient receptor potential cation channel subfamily V member 1 (Homo sapiens, UniProt Q8NER1); assay: Antagonist activity at human TRPV1 expressed in CHOK1 cells assessed as inhibition of pH 6 to 6.3-induced activity by FLIPR assay
[2] = biological target: T1, Transient receptor potential cation channel subfamily V member 1; assay: Antagonist activity at human TRPV1 expressed in CHOK1 cells assessed as inhibition of capsaicin-induced activity by FLIPR assay

T1 sequence (Q8NER1 whole entry): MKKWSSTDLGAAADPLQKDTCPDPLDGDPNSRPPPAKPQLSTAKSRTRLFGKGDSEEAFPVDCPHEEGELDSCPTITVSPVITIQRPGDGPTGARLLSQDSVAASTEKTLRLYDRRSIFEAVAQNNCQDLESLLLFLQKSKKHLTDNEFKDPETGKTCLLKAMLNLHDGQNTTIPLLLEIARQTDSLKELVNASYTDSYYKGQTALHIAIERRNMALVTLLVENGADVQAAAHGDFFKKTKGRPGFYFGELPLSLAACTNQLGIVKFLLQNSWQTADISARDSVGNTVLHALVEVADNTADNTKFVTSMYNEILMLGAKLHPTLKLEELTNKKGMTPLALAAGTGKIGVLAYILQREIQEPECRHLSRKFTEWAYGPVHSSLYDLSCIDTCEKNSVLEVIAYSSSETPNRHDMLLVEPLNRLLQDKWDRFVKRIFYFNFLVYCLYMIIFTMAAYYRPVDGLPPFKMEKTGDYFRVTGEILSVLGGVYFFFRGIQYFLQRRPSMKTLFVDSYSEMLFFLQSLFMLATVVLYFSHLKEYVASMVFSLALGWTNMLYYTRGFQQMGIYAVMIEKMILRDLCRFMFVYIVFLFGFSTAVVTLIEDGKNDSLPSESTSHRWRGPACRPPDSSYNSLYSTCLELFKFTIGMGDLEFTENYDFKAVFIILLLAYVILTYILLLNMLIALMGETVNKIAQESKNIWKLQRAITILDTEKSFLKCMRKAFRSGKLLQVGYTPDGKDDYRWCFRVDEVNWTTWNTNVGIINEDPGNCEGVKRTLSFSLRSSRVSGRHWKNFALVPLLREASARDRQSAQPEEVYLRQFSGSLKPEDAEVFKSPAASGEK

In the case of `CC(C(=O)NCc1ccc(C(F)(F)F)nc1OCCCOc1ccccc1)c1ccc(NS(C)(=O)=O)c(F)c1` (configuration not stated), the IC50 [1] is reported as 161 nM and the Ki [2] is reported as 1.5 nM.
